{
  "source": "paper PMC7757078",
  "about": "“Comparative in vitro analysis of inhibition of rhinovirus and influenza virus replication by mucoactive secretolytic agents and plant extracts” (BMC Complementary Medicine and Therapies, 2020)",
  "key": {"[1]": {"tested_on": "influenza virus A/Hong Kong/68", "conditions": "for CPE inhibition at non-cytotoxic concentrations: 0.0316–100 μM; for Effect on influenza virus A/Hong Kong/68-induced CPE (in words): non-cytotoxic concentrations"}, "[2]": {"tested_on": "influenza virus A/Jena/8178/09", "conditions": "for CPE inhibition at non-cytotoxic concentrations: 0.0316–100 μM; for CPE inhibition at non-cytotoxic concentrations / Effect on influenza virus A/Jena/8178/09-induced CPE (in words): MDCK cells; for Effect on influenza virus A/Jena/8178/09-induced CPE (in words): non-cytotoxic concentrations"}, "HeLa Ohio cells": {"tested_on": "HeLa Ohio cells", "assay": "Cytotoxicity determination in HeLa Ohio cells (crystal violet, 72 h)", "assay_type": "cell-based, human", "conditions": "for 50% Cytotoxic concentration in HeLa cells, Mean: 72 h", "procedure": "HeLa Ohio and MDCK cells were seeded at 1.6 × 10^4 and 2.3 × 10^4 cells/well in 100 μL growth medium in 96 well flat-bottomed microtiter plates, respectively. The cytotoxicity of the test compounds and extracts was determined on two-day-old confluent cell monolayers grown in the internal 60 wells of a microtiter plate (5% carbon dioxide, 37 °C). After removal of the growth medium, 50 μL of test medium and eight half-log dilutions of the reference compounds pleconaril or zanamivir, or eight half-log dilutions of test items in test medium (each concentration in duplicates) were added. The concentration range of reference compounds applied to cytotoxicity assays was 0.0316–100 μM. […] Six cell control wells were incubated with 100 μL test medium. After 72 h of incubation at 37 °C in 5% carbon dioxide atmosphere, the Dynex Immuno Assay System (Guernsey, UK), developed for automated ELISA techniques, was applied to gently wash, stain, measure, and analyze the viability of the cell monolayers based on optical density determination. After aspiration of supernatant, cell monolayers were washed three times with 300 μL physiological phosphate-buffered saline to remove death cells. The remaining cells were fixed and stained with 50 μL of 0.07% crystal violet (w/v), 20% ethanol, 3% formalin solution in water for 10 min. Six washings with 300 μL of water followed to remove excess stain. Before measuring the optical density, we solubilized the crystal violet by adding 100 μL lysis buffer (0.898 g of sodium citrate and 1.25 mL of 1 N HCl in 98.05 mL 47.5% ethanol) for 20 min. The absorbances were red at two wavelengths (550 and 690 nm). Cell viability in a well was defined as the percentage of the mean value of optical density resulting from the six cell controls, which was set 100% cell viability. The inhibitor concentration that reduces the mean value of optical density determined for cell controls by half is called 50% cytotoxic concentration (CC50). A minimum of three independent experiments were performed."}, "[3]": {"conditions": "following the application of 600 mg; cited from earlier work"}, "rhinovirus A2": {"tested_on": "rhinovirus A2", "assay": "CPE inhibitory assay with rhinovirus A2 in HeLa Ohio cells", "conditions": "for CPE inhibition at non-cytotoxic concentrations: 0.0316–100 μM, HeLa Ohio cells"}, "[4]": {"tested_on": "rhinovirus (stored under rhinovirus A2; the sentence does not specify which rhinovirus)", "assay": "in vitro", "conditions": "human"}, "rhinovirus B14 [5]": {"tested_on": "rhinovirus B14", "assay": "CPE inhibitory assay with rhinovirus B14 in HeLa Ohio cells", "assay_type": "cell-based", "conditions": "for CPE inhibition at non-cytotoxic concentrations: 0.0316–100 μM"}, "human erythrocytes": {"tested_on": "human erythrocytes", "assay": "Hemagglutination by test item in the absence of virus", "conditions": "maximum test concentration 1 μM", "procedure": "(§1) The negative control (no hemagglutination) consists only 50 μL phosphate-buffered saline (n = 8). […] We added 50 μL of a 1% human erythrocytes solution to each well of the microplate. After a two-hour incubation at 4 °C, we recorded the lowest compound concentration that induces hemagglutination or inhibits virus-mediated hemagglutination (minimum hemagglutination or hemagglutination inhibitory concentration, respectively)."}, "[6]": {"tested_on": "influenza virus A/Hong Kong/68", "assay": "organism not typed", "conditions": "MDCK, read-out: 50% Inhibitory concentration against Influenza A viruses HK/68, Mean"}, "viral neuraminidase": {"tested_on": "viral neuraminidase", "conditions": "37 °C for 24 h", "method": "Thereafter, we incubated the assays at 37 °C for further 24 h allowing viral neuraminidase activation [43]. The activated viral neuraminidase abrogates the virus-mediated hemagglutination in absence of inhibitors (hemagglutination control) or in the presence of ineffective inhibitor concentrations. Neuraminidase inhibitors prevent this abrogation of virus-mediated hemagglutination."}, "[7]": {"tested_on": "influenza virus A/Jena/8178/09", "assay": "organism not typed", "conditions": "MDCK, read-out: 50% Inhibitory concentration against Influenza A viruses Jena/8178, Mean"}, "[8]": {"tested_on": "influenza virus A/Jena/8178/09", "assay": "Hemagglutination inhibition assay with human erythrocytes", "parameters": "species or system influenza A virus (H1N1pdm09)", "conditions": "4 hemagglutination units, maximum test concentration 1 μM", "procedure": "as §1"}, "[9]": {"tested_on": "influenza virus A/Hong Kong/68", "assay": "Time-of-addition plaque-reduction assay in MDCK cells", "conditions": "pelargonium extract 50 μg/mL, zanamivir 1 μM"}, "rhinovirus B14 [10]": {"tested_on": "rhinovirus B14", "conditions": "3-day pretreatment of primary human tracheal epithelial cells; cited from earlier work"}},
  "note": "Where a name gives a salt, the structure may show the parent alone. Read-outs that look alike come from different tables or passages of the source. Marks after values point to notes of the source that are not given here.",
  "data": [
    {"smiles": "CC(=O)N[C@@H](CS)C(=O)O", "note": "[N-acetylcysteine]", "values": [
      {"measurement": "50% Cytotoxic concentration in MDCK cells, Mean", "setting": "MDCK cells", "result": "> 100^a μM"},
      {"measurement": "CPE inhibition at non-cytotoxic concentrations", "setting": "[1]; MDCK cells", "result": "less than 50%"},
      {"measurement": "Effect on influenza virus A/Hong Kong/68-induced CPE (in words)", "setting": "[1]; MDCK cells", "result": "did not show any effect"},
      {"measurement": "CPE inhibition at non-cytotoxic concentrations", "setting": "[2]", "result": "less than 50%"},
      {"measurement": "Effect on influenza virus A/Jena/8178/09-induced CPE (in words)", "setting": "[2]", "result": "did not show any effect"},
      {"measurement": "50% Cytotoxic concentration in HeLa cells, Mean", "setting": "HeLa Ohio cells; HeLa Ohio cells", "result": "> 100^a μM"},
      {"measurement": "Cytotoxicity in HeLa Ohio cells (in words)", "setting": "HeLa Ohio cells; tested concentration range", "result": "non-cytotoxic"},
      {"measurement": "Maximal plasma concentration", "setting": "[3]", "result": "about 16 μM"}
    ]},
    {"smiles": "Cc1cc(CCCOc2c(C)cc(-c3noc(C(F)(F)F)n3)cc2C)on1", "note": "[Pleconaril, pleconaril]", "values": [
      {"measurement": "IC50", "setting": "rhinovirus A2; HeLa, read-out: 50% Inhibitory concentration against Rhinoviruses A2, Mean", "result": 8, "unit": "nM"},
      {"measurement": "selectivity ratio", "setting": "[4]", "result": "> 3500"},
      {"measurement": "Concentration above which a marked dose-dependent cytotoxic effect was seen", "setting": "HeLa Ohio cells; HeLa Ohio cells", "result": "higher than 10 μM"},
      {"measurement": "50% Cytotoxic concentration in HeLa cells, Mean", "setting": "HeLa Ohio cells; HeLa Ohio cells", "result": 28.75, "unit": "µM"},
      {"measurement": "IC50", "setting": "rhinovirus B14 [5]; n.a. = not active up to the maximum non-cytotoxic concentration, read-out: 50% Inhibitory concentration against Rhinoviruses B14, Mean", "result": 25, "unit": "nM"}
    ]},
    {"smiles": "CN(Cc1cc(Br)cc(Br)c1N)C1CCCCC1", "note": "[Bromhexine, bromhexine hydrochloride]", "values": [
      {"measurement": "Cytotoxic concentration in MDCK cells", "setting": "MDCK cells; MDCK cells", "result": 100, "unit": "µM"},
      {"measurement": "50% Cytotoxic concentration in MDCK cells, Mean", "setting": "MDCK cells; MDCK cells, 72 h", "result": 51.29, "unit": "µM"},
      {"measurement": "CPE inhibition at non-cytotoxic concentrations", "setting": "rhinovirus A2", "result": "< 50", "unit": "%"},
      {"measurement": "CPE inhibition at non-cytotoxic concentrations", "setting": "[1]; MDCK cells", "result": "less than 50%"},
      {"measurement": "Reduction of influenza virus A/Hong Kong/68-induced CPE", "setting": "[1]; at 31.6 μM, MDCK cells", "result": 30, "unit": "%"},
      {"measurement": "CPE inhibition at non-cytotoxic concentrations", "setting": "[2]", "result": "less than 50%"},
      {"measurement": "50% Cytotoxic concentration in HeLa cells, Mean", "setting": "HeLa Ohio cells; HeLa Ohio cells", "result": 51.85, "unit": "µM"},
      {"measurement": "50% Cytotoxic concentration in HeLa cells, Mean", "setting": "HeLa Ohio cells; HeLa Ohio cells, listed as bromhexine", "result": 61.24, "unit": "µM"},
      {"measurement": "CPE inhibition at non-cytotoxic concentrations", "setting": "rhinovirus B14 [5]", "result": "< 50", "unit": "%"}
    ]},
    {"smiles": "CC(=O)N[C@H]1[C@H]([C@H](O)[C@H](O)CO)OC(C(=O)O)=C[C@@H]1N=C(N)N", "note": "[Zanamivir, zanamivir]", "values": [
      {"measurement": "50% Cytotoxic concentration in MDCK cells, Mean", "setting": "MDCK cells; MDCK cells, 72 h", "result": "> 100^a μM"},
      {"measurement": "Cytotoxicity in MDCK cells (in words)", "setting": "MDCK cells; tested concentrations", "result": "well tolerated"},
      {"measurement": "Induction of hemagglutination (in words)", "setting": "human erythrocytes", "result": "neither mediated nor inhibited"},
      {"measurement": "Selectivity index against Influenza A viruses HK/68", "setting": "[1]", "result": "> 12,500"},
      {"measurement": "IC50", "setting": "[6]", "result": 8, "unit": "nM"},
      {"measurement": "Selectivity index against Influenza A viruses Jena/8178", "setting": "[2]", "result": "> 14,285"},
      {"measurement": "Minimal neuraminidase inhibitory concentration", "setting": "viral neuraminidase", "result": 0.03, "unit": "µM"},
      {"measurement": "IC50", "setting": "[7]", "result": 7, "unit": "nM"},
      {"measurement": "Inhibition of virus-mediated hemagglutination (in words)", "setting": "[8]", "result": "neither mediated nor inhibited"},
      {"measurement": "Plaque production, treatment during adsorption", "setting": "[9]; 4 °C for 2 h", "result": "did not prevent"},
      {"measurement": "Plaque production, pre-treatment of cells", "setting": "[9]; 1 h at 37 °C before infection", "result": "did not prevent"},
      {"measurement": "Plaque production, pre-treatment of virus", "setting": "[9]; 1 h at 37 °C before infection", "result": "did not prevent"},
      {"measurement": "Plaque production, treatment after adsorption", "setting": "[9]; in agar overlay for 72 h", "result": "completely blocked"},
      {"measurement": "Plaque production, treatment during and after adsorption", "setting": "[9]", "result": "completely blocked"}
    ]},
    {"smiles": "Nc1c(Br)cc(Br)cc1CN[C@H]1CC[C@H](O)CC1", "note": "[Ambroxol, ambroxol]", "values": [
      {"measurement": "50% Cytotoxic concentration in MDCK cells, Mean", "setting": "MDCK cells; MDCK cells, 72 h", "result": "> 100^a μM"},
      {"measurement": "CPE inhibition at non-cytotoxic concentrations", "setting": "rhinovirus A2", "result": "< 50", "unit": "%"},
      {"measurement": "CPE inhibition at non-cytotoxic concentrations", "setting": "[1]; MDCK cells", "result": "less than 50%"},
      {"measurement": "Effect on influenza virus A/Hong Kong/68-induced CPE (in words)", "setting": "[1]; MDCK cells", "result": "did not show any effect"},
      {"measurement": "CPE inhibition at non-cytotoxic concentrations", "setting": "[2]", "result": "less than 50%"},
      {"measurement": "Effect on influenza virus A/Jena/8178/09-induced CPE (in words)", "setting": "[2]", "result": "did not show any effect"},
      {"measurement": "Concentration reducing the titer of rhinovirus B14 in the supernatant", "setting": "rhinovirus B14 [10]", "result": "at least 0.1 μM"},
      {"measurement": "50% Cytotoxic concentration in HeLa cells, Mean", "setting": "HeLa Ohio cells; HeLa Ohio cells", "result": 61.24, "unit": "µM"},
      {"measurement": "50% Cytotoxic concentration in HeLa cells, Mean", "setting": "HeLa Ohio cells; HeLa Ohio cells, listed as ambroxol", "result": 51.85, "unit": "µM"},
      {"measurement": "CPE inhibition at non-cytotoxic concentrations", "setting": "rhinovirus B14 [5]", "result": "< 50", "unit": "%"}
    ]}
  ]
}
